Assay results from patent publication US20030198617A1, “Pharmaceutical tryptophan containing dipeptide compositions and methods of use thereof” (priority 1993, published 2003).
Where two headings read alike, the source gives them in different places. Marks after values point to notes of the source that are not given here.

Experiments:
T-cells = assay: T-cell rosette assay; type: cell-based; conditions: 10^6 cells per ml
T cells = assay: Intracellular cAMP in T cells; type: cell-based
[1] = Prolonged IM862 therapy trials in irradiated patients, blood parameters; type: in vivo, human
From the text: The group of patients described in Example 42 were further treated for a period of […] and tested again subsequent to the first stage of therapy (after 4 months) and after the second stage of therapy (6 months).

[2] = Radiation injury patients (Example 67); type: in vivo, human; conditions: IM862 100 μg 10 days, 263 patients
From the text: A total of 263 patients and 18 control patients sustained exposure to radiation injury. […] A repeated course may be proscribed on the basis of immunological indices, and averages every 4 to 6 months. […] There was an arresting of asthenic syndrome, and an arresting of the somatic pathological exacerbations and reduction of opportunistic infections.

[3] = Cancer patients after radiation and chemo-therapy; type: in vivo, human; conditions: IM862 100 μg daily 10 days, 246 patients
From the text: If it vas determined necessary based on immunological indices, the treatment regimen was repeated in 4-6 months.

[4] = Spontaneous tumorigenesis, experimental models; type: in vivo; conditions: IM862 prophylactically
Post-term women = type: in vivo, human; conditions: IM862 IM or intranasally over 3-5 days, 19 women
Procedure: A total of 19 post-term women and 48 women post-term in the control study were treated.

[5] = Young sportsmen, upper respiratory infections; type: in vivo, human; conditions: IM862 intranasally 1 μg/kg, 3 days, 84 sportsmen
From the text: The control group consisted of 44 persons.

Thymectomized patients = type: in vivo, human; conditions: IM862 100 μg daily 10 days, repeated every 4-6 months, 12 patients
From the text: Prior to therapy these individuals had experienced frequent serious infections including upper respiratory infections.

[6] = Immune system of guinea pigs after radiation exposure (thymus, lymph node, spleen, blood); type: in vivo
From the text: Seventy-two of the animals were irradiated with total radiation dose was 1 Gr. […] The selected doses were optimal in stimulating an immune response to ram erythrocytes. Control irradiated and non-irradiated animals (24 guinea pigs to each group) were given saline solution per an analogous schedule. At 5, 10, and 20 days after irradiation the animals were destroyed (8 guinea pigs from each group). The thymus, spleen, and lymph nodes of each animal were extracted and their weight coefficients computed. The number of karyocytes, T-, B-, and O-lymphocytes in each organ was determined. Also, the functional activity of blood lymphocytes in the leukocyte migration inhibition reaction to Con A was assessed and the content of cation proteins in the neutrophils was determined.

Staphylococci = assay: Antibiotic-sensitivity of staphylococci from skin lesions (MIC, series cultivation); type: cell-based; conditions: after IM862 use (initially 10 of the 15)
From the text: Staphylococci extracted from dermal lesions were initially sensitive to 10 of the 15 antibiotics being assayed (Table 25).

[7] = test system: Mycobacterium tuberculosis
[8] = test system: methicillin-resistant Staphylococcal aureus
Procedure: Animals were inoculated intraperitoneally with 10×LD of Staphylococcal aureus suspended in brain-heart infusion broth containing 5 percent mucin. The antibiotic was administered s.c., i.p., or p.o., one hour following bacterial inoculation and deaths occurring during the subsequent three days are recorded.
Two control experiments were conducted. […] The number of survivors at 72 hours was determined. […] The number of survivors at 72 hours was again recorded.
Test mice were divided into 3 groups.

[9] = after the 1st stage of IM862 use
[10] = after the 2nd state of IM862 use
[11] = 20 days after irradiation, IM862 0.01 mg/kg daily for 5 days
[12] = following two months of treatment, with chemotherapy
[13] = Group 2: IM862 0.01 mg/kg 3 days before inoculation, ampicillin control (0), 5 test animals, 72 hours
[14] = Group 3: IM862 0.01 mg/kg 3 days + ampicillin 100 mg/kg 1 hr, 5 test animals, 72 hours
[15] = Group 4: IM862 0.01 mg/kg 3 days + ampicillin 10 mg/kg 1 hr, 5 test animals, 72 hours
[16] = Group 5: IM862 0.01 mg/kg 3 days + ampicillin 1 mg/kg 1 hr, 5 test animals, 72 hours
[17] = Group 6: IM862 0.001 mg/kg 3 days + ampicillin 100 mg/kg 1 hr, 5 test animals, 72 hours
[18] = Group 7: IM862 0.001 mg/kg 3 days + ampicillin 10 mg/kg 1 hr, 5 test animals, 72 hours
[19] = Group 8: IM862 0.001 mg/kg 3 days + ampicillin 1 mg/kg 1 hr, 5 test animals, 72 hours

## Glu-Trp [IM862]
T-cells
  concentration of peak effect for rosette activity: approximately 0.0006 mcg/ml
T cells
  intracellular cAMP concentrations: an increase of intracellular cAMP concentrations is observed
[1]; [9]
  CD2-DR+, %: 22.3 ± 0.5%
  CD2-DR+, abs: 0.34 ± 0.05* 10^9/l
  CD3, %: 35 ± 4 %
  CD3, abs: 0.49 ± 0.06* 10^9/l
  CD4, %: 19.5 ± 1.7 %
  CD4, abs: 0.28 ± 0.03* 10^9/l
  CD8, %: 15.4 ± 2.3%
  CD8, abs: 0.23 ± 0.03 10^9/l
  CD19, %: 15.0 ± 2.8%
  CD19, abs: 0.21 ± 0.06 10^9/l
  Leukocytes, abs: 4.7 ± 0.2* 10^9/l
  Lymphocytes, abs: 1.5 ± 0.4 10^9/l
[1]; [10]
  CD2-DR+, %: 29 ± 3 %
  CD2-DR+, abs: 0.56 ± 0.08* 10^9/l
  CD3, %: 46 ± 3 %
  CD3, abs: 0.89 ± 0.11* 10^9/l
  CD4, %: 24.1 ± 1.5 %
  CD4, abs: 0.45 ± 0.04* 10^9/l
  CD8, %: 22.3 ± 2.2 %
  CD8, abs: 0.40 ± 0.05* 10^9/l
  CD19, %: 21.1 ± 2.1 %
  CD19, abs: 0.39 ± 0.06* 10^9/l
  Leukocytes, abs: 5.5 ± 0.3* 10^9/l
  Lymphocytes, abs: 1.9 ± 0.5* 10^9/l
[2]
  clinical effect: restoration of normal or near normal immune indices
[3]
  clinical effect: normalization of immunological indices
[4]
  spontaneous tumorigenesis: diminished frequency of spontaneous tumorigenesis
Post-term women
  clinical effect: effacement of the cervix
[5]
  reduction of upper respiratory infections and rates of illness: 4 fold
Thymectomized patients
  clinical effect: normalization of immunologic indices
[6]; 10 and 20 days after irradiation
  cation protein count in the blood neutrophils: normalized at 10 and 20 days after irradiation
[6]; [11]
  Lymph Node: B-lymphocytes %: 3.5 ± 0.6^x %
  Lymph Node: B-lymphocytes ×10^3/mg: 9.2 ± 0.9^x ×10^3/mg
  Lymph Node: Lymphocytes ×10^3/mg: 242.5 ± 31.3^xx ×10^3/mg
  Lymph Node: O-lymphocytes %: 84.4 ± 12.3%
  Lymph Node: O-lymphocytes ×10^3/mg: 204.6 ± 33.4^xx ×10^3/mg
  Lymph Node: T-lymphocytes %: 12.3 ± 0.9%
  Lymph Node: T-lymphocytes ×10^3/mg: 29.9 ± 2.2^xx ×10^3/mg
  Lymph Node: Weight coefficient: 0.31 ± 0.03 g/kg
  Lymph Node: “Active” T-lymphocytes %: 10.3 ± 1.4%
  Lymph Node: “Active” T-lymphocytes ×10^3/mg: 24.9 ± 3.7^xx ×10^3/mg
  Splenic: B-lymphocytes %: 27.1 ± 2.6%
  Splenic: B-lymphocytes ×10^3/mg: 81.6 ± 9.3 ×10^3/mg
  Splenic: Lymphocytes ×10^3/mg: 260.4 ± 32.3^xx ×10^3/mg
  Splenic: O-lymphocytes %: 57.4 ± 6.7%
  Splenic: O-lymphocytes ×10^3/mg: 149.4 ± 15.9^x ×10^3/mg
  Splenic: T-lymphocytes %: 17.4 ± 1.2%
  Splenic: T-lymphocytes ×10^3/mg: 45.4 ± 4.1^xx ×10^3/mg
  Splenic: Weight coefficient: 1.26 ± 0.9 g/kg
  Splenic: “Active” T-lymphocytes %: 11.1 ± 2.0%
  Splenic: “Active” T-lymphocytes ×10^3/mg: 28.9 ± 3.9^xx ×10^3/mg
  Thymic: B-lymphocytes %: 0.9 ± 0.08^xx %
  Thymic: B-lymphocytes ×10^3/mg: 3.7 ± 0.4 ×10^3/mg
  Thymic: Lymphocytes ×10^3/mg: 423.3 ± 40.4^xx ×10^3/mg
  Thymic: O-lymphocytes %: 17.9 ± 0.8%
  Thymic: O-lymphocytes ×10^3/mg: 75.4 ± 8.6^xx ×10^3/mg
  Thymic: T-lymphocytes %: 81.3 ± 9.3%
  Thymic: T-lymphocytes ×10^3/mg: 342.8 ± 30.4^xx ×10^3/mg
  Thymic: Weight coefficient g/kg: 0.81 ± 0.8^xx g/kg
  Thymic: “Active” T-lymphocytes %: 57.6 ± 6.2^xx %
  Thymic: “Active” T-lymphocytes ×10^3/mg: 242.6 ± 26.8^xx ×10^3/mg
[6]; irradiated guinea pigs, 5 and 20 days after irradiation
  percent of leukocyte migration (blood lymphocytes, Con A): normalized this index by 20 days after radiation exposure
Staphylococci
  number of the 15 tested antibiotics to which organisms from the infected foci were sensitive: 14
[7]; after 2 months of observation
  effect on immunological indices: normalizing effect
[7]; after 4-6 months of in-hospital treatment
  positive changes in the lungs, cases out of 37: 35 cases
[7]; [12]
  improvement, number of patients: 27
  significant improvement, number of patients: 9
[8]; 0.01 mg/kg IM862 3 days prior to bacterial inoculum, no antibiotic
  Survivors: Four of 5 animals survived
[8]; [13]
  Percent ip Survivors: 80%
  Survivors: 4
[8]; [14]
  Percent ip Survivors: 100%
  Survivors: 5
[8]; [15]
  Percent ip Survivors: 100%
  Survivors: 5
[8]; [16]
  Percent ip Survivors: 100%
  Survivors: 5
[8]; [17]
  Percent ip Survivors: 100%
  Survivors: 5
[8]; [18]
  Percent ip Survivors: 100%
  Survivors: 5
[8]; [19]
  Percent ip Survivors: 100%
  Survivors: 5
